One assay deals with Sphingosine kinase 1 (Homo sapiens, UniProt Q9NYA1). The experiment in a line: Inhibition of SphK1.
A further assay addresses T1, Sphingosine kinase 2 (Homo sapiens, UniProt Q9NRA0).
T1 sequence (Q9NRA0 whole entry): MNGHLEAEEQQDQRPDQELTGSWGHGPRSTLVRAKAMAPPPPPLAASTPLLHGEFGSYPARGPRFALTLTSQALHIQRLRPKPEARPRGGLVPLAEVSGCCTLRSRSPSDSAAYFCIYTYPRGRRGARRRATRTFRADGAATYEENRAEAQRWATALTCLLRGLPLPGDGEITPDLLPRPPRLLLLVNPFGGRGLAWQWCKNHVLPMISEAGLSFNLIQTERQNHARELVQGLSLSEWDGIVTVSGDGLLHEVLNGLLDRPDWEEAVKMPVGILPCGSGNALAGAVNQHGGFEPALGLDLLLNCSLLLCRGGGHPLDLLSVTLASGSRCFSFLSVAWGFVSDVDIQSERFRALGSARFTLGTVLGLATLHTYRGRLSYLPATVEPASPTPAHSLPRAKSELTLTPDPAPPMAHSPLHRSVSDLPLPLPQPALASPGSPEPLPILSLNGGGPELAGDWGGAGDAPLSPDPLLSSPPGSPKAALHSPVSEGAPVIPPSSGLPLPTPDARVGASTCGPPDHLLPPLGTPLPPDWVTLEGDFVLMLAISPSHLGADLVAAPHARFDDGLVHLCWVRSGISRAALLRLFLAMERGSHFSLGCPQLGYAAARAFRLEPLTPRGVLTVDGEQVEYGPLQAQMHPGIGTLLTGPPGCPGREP
The experiment in a line: Inhibition of SphK2.

Sequence of Sphingosine kinase 1 (Q9NYA1 whole entry): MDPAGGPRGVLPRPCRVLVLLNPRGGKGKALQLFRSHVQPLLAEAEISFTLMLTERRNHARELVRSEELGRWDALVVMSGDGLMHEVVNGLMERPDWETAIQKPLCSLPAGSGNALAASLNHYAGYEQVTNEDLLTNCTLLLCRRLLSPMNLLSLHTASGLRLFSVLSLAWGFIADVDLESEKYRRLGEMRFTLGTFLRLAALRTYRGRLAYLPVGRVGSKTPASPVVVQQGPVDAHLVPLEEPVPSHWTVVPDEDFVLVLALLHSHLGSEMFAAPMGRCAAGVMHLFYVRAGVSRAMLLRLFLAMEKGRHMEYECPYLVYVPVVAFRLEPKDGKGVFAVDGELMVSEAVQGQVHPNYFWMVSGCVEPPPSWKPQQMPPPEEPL

With `N[C@@H](CO)[C@H](O)/C=C/CCCCCCCCc1ccc(I)cc1`, the IC50 (as a rule, the concentration at which inhibition is half-maximal) at Sphingosine kinase 1 came out at 0.5 µM; on Sphingosine kinase 2, 5.73 µM. Taken in the same sequence, the figures for `N[C@@H](CO)[C@H](O)/C=C/CCCCCCCCCc1ccc(I)cc1` were 2.78 µM and 16.6 µM. On to `N[C@@H](CO)[C@H](O)/C=C/CCCCCCCCCCCc1ccc(I)cc1`, for which the IC50 on Sphingosine kinase 1 is 2.25 µM; on Sphingosine kinase 2, 13.3 µM.

As for `N[C@@H](CO)[C@H](O)/C=C/CCCCCCCCCCc1ccc(I)cc1`, the figures for the IC50 on Sphingosine kinase 1 and against Sphingosine kinase 2 were 2.19 µM and 4.38 µM, respectively.

For the molecule `CCCCCCCCCCCCC/C=C/[C@@H](O)[C@@H](N)CO` [SPHINGOSINE], the IC50 against Sphingosine kinase 2 amounted to 1.56 µM. `CCCCCCCCCCCCC/C=C/[C@@H](O)[C@H](CO)N(C)C` [DIMETHYLSPINGOSINE] displayed an IC50 against Sphingosine kinase 2 of more than 80 µM. In the case of `N[C@@H](CO)[C@H](O)/C=C/CCCCCCCCCCCCCc1ccc(I)cc1`, the IC50 at Sphingosine kinase 1 stood at 3.98 µM; against Sphingosine kinase 2 it was 29.2 µM. The matching figures for `N[C@@H](CO)[C@H](O)/C=C/CCCCCCc1ccc(I)cc1`: 3.96 µM and 7.23 µM.

The values above are taken from ChEMBL document CHEMBL1158441 (Bioorg Med Chem Lett, 2009).
